Measured values: patent publication US7078389B2, “Chemically modified oligonucleotide for site-directed mutagenesis” (priority 1993, dated 2006)

Tests used:
[1] = system: supF gene within the SV40 vector pSP189; assay: Hinf I restriction enzyme protection assay, SV40 vector DNA target; assay type: binding; conditions: vector 50 nM
Method: The binding and irradiation were carried out as described above, except that pSP189 was used as the supF target at a concentration of 50 nM and psoralen-AG10 was added at ratios of oligomer to vector of from 1:1 to 1000:1. Irradiation and gel conditions were as described above.
Similar experiments were performed to assay for site-specific binding of psoralen-AG10 to bp 167–176 in the supF gene within the SV40 vector itself. In these experiments, varying ratios of oligonucleotide to vector DNA were employed in order to examine basic parameters of the triplex binding to the viral genome. […] Binding of psoralen-AG10 as a triple strand to bp 167–176 of the supF gene within the SV40 vector was assayed by examining protection from Hinf I digestion at bp 164–168, as diagrammed in FIG. 4. The SV40 vector containing the supF target gene (50 nM) was incubated with psoralen-AG10 at ratios of oligomer to vector of from 1:1 to 1000:1, irradiated with 1.8 J/cm^2 of UVA, digested with Hinf I, and run on a 4.5% Nusieve gel. Because the sequences flanking the supF gene in the SV40 DNA differ from those in the PCR fragment, and since there are multiple Hinf I sites in SV40, the pattern of bands is more complex.

[2] = system: supF gene within the pSP189 SV40 vector; assay: Sequence analysis and colony hybridization of supF mutants from SV40 vector; design: species or system monkey
Method: Colony hybridization. Ampicillin resistant colonies of SY204 carrying shuttle vector plasmids with supF gene mutations, along with appropriate control colonies, were grown on LB/ampicillin plates and transferred onto replica nylon filters for additional growth and in situ lysis to allow colony hybridization by standard methods. The DNA was fixed to the filters by UV crosslinking, and the filters were incubated in 6×SSC, 5×Denhardt's solution, 0.5% SDS, and 5×10^5 cpm/ml of ^32P-labeled oligonucleotides at 42° C. for 18 hours. The filters were washed in 1×SSC and 0.1% SDS for 30 minutes at 25° C. and then in 1×SSC and 0.1% SDS at 42° C. for 2 hours. […] Binding of the oligonucleotide probes was determined by autoradiography.
DNA Sequencing. DNA was prepared for sequencing by isolating DNA from a 3 ml bacterial culture using a Promega Magic Miniprep kit (Promega, Madison, Wis.). DNA sequence data was obtained by direct chain termination sequencing of the plasmid DNA using automated methods.
Sequence analysis of targeted mutations. A set of 20 mutants generated in the supF gene in the SV40 vector by psoralen-AG10 (at the 1000:1 ratio) and UVA light were subjected to DNA sequence analysis.
In the analysis of mutagenesis in SV40 vectors, it is often difficult to determine if identical mutations arose independently or if they were the result of a single mutational event amplified by subsequent vector replication. In order to exclude the possibility that such sibling mutations were isolated in these experiments, use was made of an advantageous feature of the pSP189 system, in which over 100,000 different, random-sequence 8 base pair oligonucleotides were cloned into a region of pSP189 next to the supF gene. The vector DNA is prepared en masse from this library of vector clones containing the different 8 bp sequences. In this way, at the same time that the sequence of the supF gene in a mutant vector is ascertained, the 8 base pair signature sequence in that particular plasmid molecule can also be identified by reading a few extra bases further in the sequence data. This enables comparisons between the 8 bp signature sequences in plasmids bearing the same supF mutation to see if they are siblings from the same mutational event or if they are independent mutations.
Instead of direct sequencing, a technique of differential oligonucleotide hybridizations was used (Sidransky et al., Science 252:706–709 (1991)). In this assay, undertaken in an effort to streamline mutant analysis, ampicillin resistant bacterial colonies containing mutant supF genes were grown on nylon filters to allow nucleic acid hybridizations.

[3] = system: supF gene contained within the chromosomes of the LN12 cells; assay: Targeted mutagenesis in mouse fibroblast LN12 cells; assay type: cell-based
From the text: For the purposes of achieving targeted mutagenesis in mouse cells in vivo, the assay system to detect mutations in the chromosomes of mouse fibroblasts in culture developed by Glazer et al. was used (Proc. Natl. Acad. Sci. USA 83:1041–1044, (1986), which is incorporated by reference herein). This system allows detection and analysis of mutations occurring in the supF gene contained within the chromosomes of the LN12 cells, a derivative of mouse L cells into whose chromosomes multiple copies of the lambda supF shuttle vector were inserted.
The LN12 cells, growing in culture, were treated with the oligonucleotide, psoralen-AG10, which is designed to target mutations to base pair 167 in the supF gene via sequence-specific triplex formation and thereby delivery of the psoralen to that site. This oligonucleotide was used also in the lambda and the SV40 experiments. The oligonucleotide was added directly to the growth medium of the cells at various concentrations in the range of 0.1 to 50 μM. Two hours later, the cells were exposed to 0.07 J/cm^2 of UVA irradiation, the cells were allowed to grow for an additional 2 to 4 days, and then DNA was prepared from the cells to analyze for mutations in the supF gene. Using lambda in vitro packaging extracts to rescue the supF gene in the lambda vector from within the mouse DNA (as described by Glazer et al., cited above), mutations were detected in approximately 0.05% of the supF genes. Over forty mutant supF genes have been isolated in these recent experiments (from all concentrations of oligonucleotide studied), but the sequence of only one has been determined so far.

Substance: 4′-hydroxymethyl-4,5′,8-trimethylpsoralen-^5′AGGAAGGGGG^3′ (DNA NAGGAAGGGGG; 4'-hydroxymethyl-4,5',8-trimethylpsoralen conjugated at 5' end, further chemistry not given here) [pso-AG10]
- Hinf I protection at the targeted site ([1]; oligomer to vector 1:1, UVA 1.8 J/cm^2): only partial protection
- Hinf I protection at the targeted site ([1]; oligomer to vector 2:1, UVA 1.8 J/cm^2): only partial protection
- Hinf I protection at the targeted site ([1]; oligomer to vector 10:1, UVA 1.8 J/cm^2): almost complete
- Hinf I protection at the targeted site ([1]; oligomer to vector 100:1, UVA 1.8 J/cm^2): near complete protection
- Hinf I protection at the targeted site ([1]; oligomer to vector 1000:1, UVA 1.8 J/cm^2): near complete protection
- Share of sequenced mutations with the same base change at the targeted base pair ([2]; 20 mutants, 1000:1 ratio, UVA, DNA sequencing): 55%
- Share of mutants carrying the T:A to A:T mutation at bp 167 ([2]; 42 mutants, colony hybridization): 52%
- Share of all viral genomes with intended base change (T:A to A:T at bp 167) ([2]; 1000:1 ratio, UVA): over 4%
- Number of colonies with hybridization specific to the 167 mutant probe ([2]; of 19 colonies assayed, colony hybridization): 9
- Number of sequenced mutations with T:A to A:T transversion at base pair 167 ([2]; of 20 mutants, 1000:1 ratio, UVA, DNA sequencing): 11
- Number of point mutations at base pairs adjacent to the targeted base pair ([2]; of 20 sequenced mutants): 3
- Number of small deletions including or abutting the targeted base pair ([2]; of 20 sequenced mutants): 6
- Number of mutants carrying the T:A to A:T mutation at bp 167 ([2]; of 42 mutants, colony hybridization (including 20 sequenced)): 22
- Share of mutations that are the same T:A to A:T transversion, data taken together ([2]; sequencing and hybridization together): at least 50%
- Share of supF genes with mutations ([3]; 0.1 to 50 μM in growth medium, 2 hours, UVA 0.07 J/cm^2, 2 to 4 days growth): approximately 0.05%
- Relation of supF mutation frequency to oligonucleotide concentration ([3]; 0.1 to 50 μM, FIG. 6): dose-response relationship
- Sequence of the one supF mutant determined ([3]; LN12 cells): T:A to A:T transversion exactly at the targeted base pair
